For 8 compounds, IC50, IC90 and MIC results are on record in ChEMBL document CHEMBL4425168, “Dehydrozingerone Inspired Styryl Hydrazine Thiazole Hybrids as Promising Class of Antimycobacterial Agents” (ACS Med Chem Lett, 2016).

≈ marks a conversion by molar mass, not a printed value. Where only a bound is given, the exact number is not on record here.

What all share (format): functional, organism-based
Test [1] relates to Mycobacterium tuberculosis. Kind of test: Antitubercular activity against Mycobacterium tuberculosis H37Rv RIF-R1 harboring nrpoB S522L mutant after 5 days.
Test [2] has as its system Mycobacterium tuberculosis. The test is described as follows: Antitubercular activity against Mycobacterium tuberculosis H37Rv FQ-R1 harboring gyrB D94N mutant after 5 days.
Test [3] deals with Mycobacterium tuberculosis. The test is described as follows: Antitubercular activity against Mycobacterium tuberculosis H37Rv INH-R1 harboring katG Y155 mutant after 5 days.

As a reminder, the IC50 is the concentration needed to halve the response being measured. The low end stands for greater potency in that assay, the high end for weaker potency in that assay. The IC90 is the concentration needed for an effect of 90%. Higher therefore signals weaker potency. Usually MIC stands for the lowest concentration that inhibits growth of the organism. High values mean weaker potency, low ones greater potency. Take `COc1ccc(/C=C/C(C)=N/Nc2nc(-c3ccc(N)cc3)cs2)cc1OC`: the IC50 in test [1] was 0.54 µM; in test [2], 2.3 µM; in test [3], 0.68 µM. Also, the results for the IC90 in test [1], in test [2] and in test [3] were 2.6 µM, 33 µM and 3.8 µM, respectively. For the same compound, the MIC in test [1] was found to be 2.2 µM (≈ 0.868 µg/mL); in test [2] it was 21 µM (≈ 8.28 µg/mL); in test [3], 3.2 µM (≈ 1.26 µg/mL).

As for `COc1ccc(/C=C/C(C)=N/NC(N)=S)cc1OC`, in test [1], the IC50 was 1.1 µM, the IC90 stood at 4.6 µM and the MIC is 4 µM (≈ 1.12 µg/mL). In test [2], this compound had an IC50 of 2.8 µM, an IC90 of 16 µM and an MIC of 17 µM (≈ 4.75 µg/mL). In test [3], this compound displayed a half-maximal inhibitory concentration (IC50) of 1.3 µM, an IC90 of 6.6 µM and a minimum inhibitory concentration (MIC) of 5.3 µM (≈ 1.48 µg/mL).

As to `COc1ccc(/C=C/C(C)=N/Nc2nc(-c3ccc(OC)c(OC)c3)cs2)cc1OC`, in test [1], the IC50 is 9.2 µM, the 90% effect level (IC90) was put at 27 µM and the MIC was 28 µM (≈ 12.3 µg/mL). Besides, in test [2], the IC50 is 18 µM, the IC90 was over 200 µM and the MIC is 30 µM (≈ 13.2 µg/mL). Moreover, in test [3], half-maximal inhibition (IC50) required 12 µM, the IC90 is over 200 µM and the MIC turned out to be 24 µM (≈ 10.5 µg/mL).

In test [1], `COc1ccc(-c2csc(N/N=C(C)/C=C/c3ccc(OC)c(OC)c3)n2)cc1` had an IC50 of 11 µM, an IC90 of over 50 µM and an MIC of 25 µM (≈ 10.2 µg/mL). Further, in test [2], half-maximal inhibition (IC50) required 23 µM, the IC90 is over 50 µM and the MIC turned out to be 22 µM (≈ 9.01 µg/mL). In test [3], this compound came in with an IC50 of 12 µM, an IC90 of over 50 µM and an MIC of 15 µM (≈ 6.14 µg/mL).

In test [1], `COc1ccc(/C=C/C(C)=N/Nc2nc(-c3c(OC)cccc3OC)cs2)cc1OC` showed an IC50 of 7 µM, an IC90 of 19 µM and an MIC of 17 µM (≈ 7.47 µg/mL). In test [2], this compound gave an IC50 of 13 µM, an IC90 of over 25 µM and an MIC of 33 µM (≈ 14.5 µg/mL). In test [3], this compound had an IC50 of 9.1 µM, an IC90 of over 25 µM and an MIC of 32 µM (≈ 14.1 µg/mL).

Consider `NNC(=O)c1ccncc1` [ISONIAZID], for which the IC50 was 0.15 µM in test [1], 0.36 µM in test [2] and over 200 µM in test [3]. Also, the IC90 was 0.21 µM in test [1], 0.47 µM in test [2] and over 200 µM in test [3]. Further, the MIC in test [1] was 0.17 µM (≈ 0.0233 µg/mL); in test [2], 0.35 µM (≈ 0.048 µg/mL); in test [3], over 200 µM.

`C[C@H]1COc2c(N3CCN(C)CC3)c(F)cc3c(=O)c(C(=O)O)cn1c23.C[C@H]1COc2c(N3CCN(C)CC3)c(F)cc3c(=O)c(C(=O)O)cn1c23.O` [LEVOFLOXACIN]: the IC50 worked out at 0.59 µM in test [1], 12 µM in test [2] and 0.64 µM in test [3]. Further, the IC90 in test [1] was found to be 0.91 µM; in test [2], 22 µM; in test [3], 1.4 µM. Also, the values for the MIC in test [1], in test [2] and in test [3] were 0.76 µM, 20 µM and 1.2 µM, respectively.

Take `CO[C@H]1/C=C/O[C@@]2(C)Oc3c(C)c(O)c4c(O)c(c(/C=N/N5CCN(C)CC5)c(O)c4c3C2=O)NC(=O)/C(C)=C\C=C\[C@H](C)[C@H](O)[C@@H](C)[C@@H](O)[C@@H](C)[C@H](OC(C)=O)[C@@H]1C` [RIFAMPIN]: the IC50 in test [1] is 1.2 µM; in test [2] it was 0.013 µM; in test [3], 0.0084 µM. Moreover, the results for the IC90 in test [1], in test [2] and in test [3] were 2.3 µM, 0.039 µM and 0.022 µM, respectively. For the same compound, the results for the MIC in test [1], in test [2] and in test [3] were 2 µM (≈ 1.65 µg/mL), 0.027 µM (≈ 0.0222 µg/mL) and 0.018 µM (≈ 0.0148 µg/mL), respectively.
